Measurements: patent US20250312336A1, “Compositions And Methods For Treating Cancer With Calcium Channel Inhibitors” (Institute for Cancer Research d/b/a The Research Institute …, priority 2024, published 2025)
Entries after “also recorded” stand apart in the source; their conditions may differ.

Key:
[1] = tested on: PDAC cells; assay: Trogocytosis of CAF membranes by PDAC cells with cytoskeleton inhibitors; type: cell-based; conditions: cytoskeleton (actin polymerization) inhibitors
Method: (§1) To label cellular membranes, pairs of lipophilic fluorescent dyes were used according to the manufacturer's instructions in the following combinations: 1) adherent CAFs were stained with 1 μM PKH67 (Sigma-Aldrich), Panc-1 were stained in suspension with 10 μM CellTracker™ orange CMCMR (Thermo Fisher Scientific); 2) CAFs labeled with 0.5 μM BODIPY-cholesterol (Topfluor Cholesterol, #DO-016545, Avanti Polar Lipids) dissolved in 0.1 mM methyl-beta-cyclodextrin (#C4555, Sigma) with 2 μM cholesterol (#C8667, Sigma-Aldrich) in MEM media at 37° C. for 30 min in suspension; murine or human (Panc-1) PDAC cells were stained in suspension with CPD670 (#65-0840-85, Thermo Fisher Scientific). After labeling, CAFs were co-incubated for the indicated time intervals with PDAC cells in 12-well culture plates at ratio of 2:1 in 0.5% DMEM media. Co-cultures of CAFs and PDAC cells for 3 minutes on ice minutes were used as negative controls. In experiments assessing the effect of extracellular calcium on trogocytosis, cells were co-cultured in Phosphate Buffered Saline (PBS) containing calcium and magnesium (D8662, Sigma-Aldrich) or in PBS without calcium and magnesium (D8537, Sigma-Aldrich). After co-cultures, cells were collected and pelleted by centrifugation (5 min, 1500 rpm), resuspended in 10% formalin (Sigma) for 10 min at RT, washed and re-suspended in PBS/1% BSA. Trogocytosis was measured as the acquisition of CAF-specific fluorescence in PDAC cells by flow cytometry on MACSQuant® VYB Flow Cytometer (Miltenyi Biotec) or FACScan analyzer (BD Biosciences). Analysis of dual staining was done using FlowJo software (10.8.1, BD Biosciences). Live cells were gated based on FSC/SSC parameters, then single cells were gated based on SSC-A/SSC-H.

[2] = tested on: store-operated calcium entry (SOCE) in CAFs; assay: Cytosolic calcium (Fluo4) in CAFs co-cultured with Panc-1 cells; type: cell-based, human; conditions: indicated concentrations of inhibitors, Fluo4 measured 5 minutes after addition
Method: CAF (5×10^3) and PDAC ([…]) cells were incubated (separately or in co-culture) on coverslips for 12 hrs before loading with the calcium indicator Fluo4-AM (5 μM; Invitrogen, Eugene, OR) in DMEM supplemented with HEPES and 0.5% FBS and incubated at 37° C., 5% CO2 for 30 min. Cells were washed in DMEM before incubating for an additional 30 minutes at 37° C., 5% CO2 to permit de-esterification of the dye. Fluorescence emissions at 506 nm in response to excitation at 494 nm were monitored for 60 cycles at a frequency of 0.33 Hz using a Leica SP8 laser scanning microscope (Buffalo Grove, IL) at 37° C. with 5% CO2. Intracellular Ca2+measurements are shown as absolute fluorescence obtained from 35-45 cells obtained using Leica LASX software. Averaged results±SEM from at least three independent experiments were analyzed by one-way ANOVA with GraphPad Prism. […]
CAF (5×10^3) cells were incubated on coverslips for 12 hrs before loading with the calcium indicator Fura2-AM (2 μM; Invitrogen, Eugene, OR) in cation-safe solution (107 mM NaCl, 7.2 mM KCl, 1.2 mM MgCl2, 11.5 mM glucose, 20 mM Hepes-NaOH, 1 mM CaCl2, pH 7.2) for 30 min at 24° C. as previously described. Cells were washed, and dye was allowed to de-esterify for a minimum of 30 min at 24° C. Cells were treated with Vehicle control, […] CM462, or 1 μM BTP2 along with 2 μM Thapsigargin for 10 minutes. After Ca2+ levels returned to their baseline, 1 mM Ca2+ was added. Ca2+ measurements were made using a Leica DMI 6000B fluorescence microscope controlled by Slidebook Software (Intelligent Imaging Innovations; Denver, CO). Fluorescence emission at 505 nm was monitored while alternating between 340 and 380 nm excitation wavelengths at a frequency of 0.67 Hz; intracellular Ca2+ measurements are shown as 340/380 nm ratios obtained from groups (20-25) of single cells.

[3] = target: T1, ANO6 (Homo sapiens, UniProt Q4KMQ2); assay: PtdSer externalization (annexin XII) in CAFs co-cultured with DsRed-tagged Panc-1 cells; type: cell-based; set-up: this increase was observed only in control CAFs (ANO6-proficient) engaged in physical contacts with DsRed-tagged Panc-1 cells; endogenous in cells; host or cells: human CAFs in co-culture with DsRed-tagged Panc-1 cells; conditions: BTP2 10 μM; clofazimine 1 μM; niclosamide
T1 sequence (Q4KMQ2 1-910): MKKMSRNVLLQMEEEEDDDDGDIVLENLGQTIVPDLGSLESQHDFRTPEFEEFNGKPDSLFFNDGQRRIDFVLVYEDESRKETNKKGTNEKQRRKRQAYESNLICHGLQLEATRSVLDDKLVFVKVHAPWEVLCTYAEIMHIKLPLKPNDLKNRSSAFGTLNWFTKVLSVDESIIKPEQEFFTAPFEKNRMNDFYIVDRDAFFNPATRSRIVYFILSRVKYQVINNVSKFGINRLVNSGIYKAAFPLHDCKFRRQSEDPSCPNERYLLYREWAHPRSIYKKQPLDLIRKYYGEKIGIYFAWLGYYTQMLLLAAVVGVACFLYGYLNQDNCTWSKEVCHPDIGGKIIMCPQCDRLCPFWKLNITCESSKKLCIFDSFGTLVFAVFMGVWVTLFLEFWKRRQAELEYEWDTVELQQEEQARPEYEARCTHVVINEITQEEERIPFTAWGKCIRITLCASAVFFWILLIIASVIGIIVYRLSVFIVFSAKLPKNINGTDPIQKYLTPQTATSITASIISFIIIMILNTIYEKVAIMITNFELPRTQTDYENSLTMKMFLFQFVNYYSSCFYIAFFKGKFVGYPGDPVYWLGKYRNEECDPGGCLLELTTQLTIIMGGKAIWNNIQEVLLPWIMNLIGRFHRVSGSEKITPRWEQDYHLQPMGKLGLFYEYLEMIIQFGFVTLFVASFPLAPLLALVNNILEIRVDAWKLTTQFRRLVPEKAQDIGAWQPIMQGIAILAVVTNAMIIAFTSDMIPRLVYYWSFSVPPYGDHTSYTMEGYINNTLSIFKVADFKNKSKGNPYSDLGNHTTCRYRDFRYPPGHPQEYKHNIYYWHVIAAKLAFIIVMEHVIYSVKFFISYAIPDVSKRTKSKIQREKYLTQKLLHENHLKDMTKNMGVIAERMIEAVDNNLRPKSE
Method: (§2) CAFs were seeded in 24-well glass bottom plates (cat. #81156, Ibidi, Fitchburg, WI) at a density of 20,000 cells per well. Cells were then treated with niclosamide (1 μM) for 2 h. After one wash with FBS-free media at RT, cells were incubated with 250 μl of 1:100 annexin XII and 1:200 propidium iodide (pSIVA Abcam #ab129817), with or without 10 μM ionomycin. Cells were then incubated (5 min 37C) and imaged by fluorescence microscopy using a Nikon A1 camera (Nikon) linked to a Nikon Eclipse Ti2-E Inverted Microscope Imaging System (Nikon) for each channel. Fifteen images per well were acquired.

[4] = tested on: Panc-1 cells; assay: Trogocytosis of PKH67-labeled CAF membranes by Panc-1 cells in co-culture (flow cytometry); type: cell-based, human; conditions: 3 mM EGTA, mean fluorescence intensity normalized to vehicle
Method: as §1, with “After co-cultures, cells were collected and pelleted by centrifugation (5 min, 1500 rpm), resuspended in 10% formalin (Sigma) for 10 min at RT, washed and re-suspended in PBS/1% BSA.” left out, “Analysis of dual staining was done using FlowJo software (10.8.1, BD Biosciences). Live cells were gated based on FSC/SSC parameters, then single cells were gated based on SSC-A/SSC-H.” left out

[5] = tested on: KPCN349 cells; assay: Trogocytosis of BODIPY-cholesterol labeled CAF membranes by KPCN349 cells with PtdSer masking; type: cell-based, murine; conditions: 100 nM Annexin-V or 100 nM Zn-DPA; CAFs pre-treated 2 h, maintained in co-culture
Method: as §1, with “After co-cultures, cells were collected and pelleted by centrifugation (5 min, 1500 rpm), resuspended in 10% formalin (Sigma) for 10 min at RT, washed and re-suspended in PBS/1% BSA.” left out, “Analysis of dual staining was done using FlowJo software (10.8.1, BD Biosciences). Live cells were gated based on FSC/SSC parameters, then single cells were gated based on SSC-A/SSC-H.” left out

[6] = target: T1, ANO6; assay: Phosphatidylserine externalization assay in CAFs pulsed with ionomycin (annexin XII); type: cell-based; set-up: endogenous in cells; host or cells: human patient-derived, hTERT-immortalized pancreatic cancer-associated fibroblasts (CAFs)
Method: as §2

[7] = tested on: OT-1 CTLs; assay: Trogocytosis assay of DiD-labeled CAFs co-cultured with OT-1 CTLs; type: cell-based, mouse; conditions: for Transfer of DiD (CAF PM uptake) from CAFs to OT-1 CTLs: 12 h co-culture, niclosamide 1 μM, clofazimine 1 μM, anti-TIM3 Ab 4 μg/ml, 25-hydroxycholesterol 4 μM
Method: For trogocytosis between OT-1 and CAF cells, T cells were isolated from splenocytes of OTI mice (strain 021880, The Jackson Laboratory) and stimulated with OVA257-264 (1 μg/ml) for 24 hours as described.
Cholesterol abundance in cell membranes was determined with Cholesterol Detection Assay Kit (Cayman, cat #10009779). Dissociated cells were fixed with fixative solution for 10 minutes, washed and labeled with Filipin III as per the manufacturer's instructions. Labeling with Filipin III was done by incubating in the dark for 30 minutes. After two washes for 5 minutes each, labeling was analyzed by flow cytometry (excitation: 340-380, emission: 385-470). The IFN-γ, Granzyme B and Foxp3 were detected using Foxp3/Transcription Factor Staining Buffer (00-5523-00, Thermo Fisher Scientific). Cells were stained for cell surface markers at 4° C. for 30 min followed by fixation and permeabilization buffer for 30 mins and two washes with permeabilization buffer and incubation with the indicated antibodies for 30 mins, washed with PBS twice followed by flow cytometry analysis.

For `C/C1=C/C(=O)O[C@@H]2C[C@@H](CC[C@H](C)/C=C\CC1)O[C@@](O)([C@@H]1CSC(=O)N1)C2` [Latrunculin B], the “Uptake of CAF PMs by PDAC cells” value [1] was “suppressed uptake of CAF PMs”.

With `Cc1nnsc1C(=O)Nc1ccc(-n2nc(C(F)(F)F)cc2C(F)(F)F)cc1` [BTP2] the “Cytosolic Ca2+ elevation (Fluo4 signal) in CAFs engaged in cell-cell contacts with PDAC (Panc-1) cells” value (“Cytosolic Ca2+ elevation (Fluo4 signal)” below) [2] was “effectively blocked cytosolic Ca2+ elevation; also recorded: abrogated Fluo4 fluorescent signal” and the “PtdSer externalization (annexin XII) in CAFs co-cultured with Panc-1 cells” value [3] was “suppressed PtdSer externalization; also recorded: blocked”.

For lantrinculin A, the “Uptake of CAF PMs by PDAC cells” value [1] was “partially suppressed”.

With `C=C1[C@@H](C)[C@H]2[C@H](Cc3ccccc3)NC(=O)[C@]23[C@H](OC(C)=O)/C=C/[C@@](C)(O)C(=O)[C@@H](C)C/C=C/[C@H]3[C@@H]1O` [Cytochalasin D] the “Uptake of CAF PMs by PDAC cells” value [1] was “suppressed uptake of CAF PMs” and the “Uptake of CAF PMs by PDAC cells” value ([1]; listed as cytochalasin D) was “partially suppressed”.

In the case of `O=C(N/N=C/c1ccc(O)c(O)c1)c1cc2ccccc2cc1O` [Dynasore], the “Trogocytosis of CAF membranes / uptake of membrane lipids from human CAFs by Panc-1 cells” value ([4]; listed as dynasore) is reported as “did not affect the uptake”.

In the case of bis-Zn-dipicolylamine [Zn-DPA], the “Uptake of BODIPY-labeled CAF membranes by KPCN349 cells” value [5] is reported as “significantly reduced uptake; also recorded: antagonizes trogocytosis”.

With `COc1ccc2c(c1)CC[C@@H]1[C@@H]2CC[C@]2(C)[C@@H](NCCCCCCN3C(=O)C=CC3=O)CC[C@@H]12` [U73122] the “Cytosolic Ca2+ elevation (Fluo4 signal)” value [2] was “no effect on Fluo4 signal”.

For `O=C(O)CN(CCOCCOCCN(CC(=O)O)CC(=O)O)CC(=O)O` [EGTA], the “PtdSer externalization in CAFs with extracellular calcium chelator” value ([6]; 1 μM ionomycin 5 minutes, 2 mM EGTA, annexin XII) was “blocked” and the “Trogocytosis of CAF membranes / uptake of membrane lipids from human CAFs by Panc-1 cells” value [4] was “inhibited”.

With `Cc1cccc(F)c1C(=O)Nc1cnc(-c2cc3c(cc2Cl)OC(F)(F)O3)cn1` [zegocractin] the “Cytosolic Ca2+ elevation (Fluo4 signal)” value [2] was “abrogated Fluo4 fluorescent signal” and the “Cytosolic Ca2+ elevation (Fluo4 signal)” value ([2]; listed as zegocratin) was “effectively blocked cytosolic Ca2+ elevation”.

For `C[C@H](CCCC(C)(C)O)[C@H]1CC[C@H]2[C@@H]3CC=C4C[C@@H](O)CC[C@]4(C)[C@H]3CC[C@]12C` [25-hydroxycholesterol], the “Ability of CAFs to inhibit IFN-γ production by the CTLs” value ([7]; 12 h co-culture with CAFs) was “reduced the ability of CAFs to inhibit IFN-γ production” and the “Transfer of DiD (CAF PM uptake) from CAFs to OT-1 CTLs” value [7] was “effectively inhibited the transfer of DiD”.

`C[C@H](CCC(=O)O)C[C@H](C)C[C@H](C)C(=O)/C=C(\O)[C@H](C)C[C@H](C)C/C=C/[C@@H](C)[C@@H](O)[C@@H](C)[C@@H](O)C[C@@H]1CC[C@@](C)([C@H]2CC[C@@](C)([C@@H](C)O)O2)O1` [ionomycin] was tested, and the “Cytoplasmic calcium in control CAFs” value ([6]; calcium ionophore treatment) was “increased cytoplasmic calcium” and the “PtdSer externalization to the PM in control CAFs” value ([6]; calcium ionophore treatment) was “led these cells to externalize PtdSer”.

B1: annexin V: PtdSer binding recombinant annexin V, label-free (protein, UniProt P08758 2-320, looked up)
Annexin A5: AQVLRGTVTDFPGFDERADAETLRKAMKGLGTDEESILTLLTSRSNAQRQEISAAFKTLFGRDLLDDLKSELTGKFEKLIVALMKPSRLYDAYELKHALKGAGTNEKVLTEIIASRTPEELRAIKQVYEEEYGSSLEDDVVGDTSGYYQRMLVVLLQANRDPDAGIDEAQVEQDAQALFQAGELKWGTDEEKFITIFGTRSVSHLRKVFDKYMTISGFQIEETIDRETSGNLEQLLLAVVKSIRSIPAYLAETLYYAMKGAGTDDHTLIRVMVSRSEIDLFNIRKEFRKNFATSLYSMIKGDTSGDYKKALLLLCGEDD
With B1 the “Uptake of BODIPY-labeled CAF membranes by KPCN349 cells” value [5] was “significantly reduced uptake; also recorded: antagonizes trogocytosis” and the “Transfer of DiD (CAF PM uptake) from CAFs to OT-1 CTLs” value [7] was “significantly reduced CAF PM uptake”.
